Tests used:
Assay type in all cases: in vivo
[1] = system: Chemotherapeutic agent-caused diarrhea models of Balb/c mice; test: Examples 1-229 (Table 3): oral CDK inhibitor, relief of diarrhea caused by a chemotherapeutic agent;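 also: percent of treated mice whose diarrhea grade fell below chemotherapy-group average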
[2] = system: diarrhea caused by a chemotherapeutic agent in Balb/c mice; test: Examples 382-405 (Table 7): various administration modes of the CDK inhibitor, relief of diarrhea caused by a chemotherapeutic agent; conditions: for Relative remission rate of oral administration: CDK inhibitor oral 150 mg/kg single
Source text: Balb/c mice were fed for 1 week, and then divided into groups. The experiment was divided into a control group, a chemotherapeutic agent group, CDK inhibitor groups (including an oral administration group of a CDK inhibitor, an intraperitoneal injection group of a CDK inhibitor, an intramuscular injection group of a CDK inhibitor, a local administration group of a CDK inhibitor), each of which comprised 10 mice, to perform the administration experiment, for which the administration dosage, mode, time and frequency were shown in Table 7. The control group: being administered with the same solvent as that used in the CDK inhibitor group (the time and mode were shown in Table 7), and then being injected/intragastrically administered with the same solvent as that used in the chemotherapeutic agent group (the administration mode was shown in Table 7): the chemotherapeutic agent group: being administered with the same solvent as that used in the CDK inhibitor group (the time and mode were shown in Table 7), and then being injected/intragastrically administered with the chemotherapeutic agent (the type, administration mode and dosage were shown in Table 7): the oral administration group of the CDK inhibitor: being intragastrically administered with the CDK inhibitor (the time was shown in Table 7), and then being administered with the chemotherapeutic agent (the mode and dosage were shown in Table 7): the intraperitoneal injection group of the CDK inhibitor: being intraperitoneally injected with the CDK inhibitor (the time was shown in Table 7), and then being administered with the chemotherapeutic agent (the mode and dosage were shown in Table 7): the intramuscular injection group of the CDK inhibitor: being intramuscularly injected with the CDK inhibitor (the time was shown in Table 7), and then being administered with the chemotherapeutic agent (the mode and dosage were shown in Table 7); and the local administration group of the CDK inhibitor: the hair on the abdomen of mice was shaved (about 2 cm*2 cm), being applied with the CDK inhibitor (the time was shown in Table 7), and then being administered with the chemotherapeutic agent (the mode and dosage were shown in Table 7).
The diarrhea grading of mice was observed and recorded every day.

[3] = system: diarrhea caused by the continuous administration of a chemotherapeutic agent in Balb/c mice; test: Examples 444-469 (Table 9): oral CDK inhibitor, diarrhea caused by continuous administration of a chemotherapeutic agent; conditions: Example 457; Fluorouracil (5-Fu) oral administration 50 mg/kg once a day, for 14 days; CDK inhibitor oral 150 mg/kg once a day, for 14 days, 8 h before; cycle 14 days
Source text: Balb/c mice were fed for 1 week, and then divided into groups. The experiment was divided into a control group, a chemotherapeutic agent group, and a CDK inhibitor group, each of which comprised 10 mice, to perform the administration experiment, for which the administration dosage, mode, time and frequency were shown in Table 9. The control group: being intragastrically administered with the same solvent as that used in the CDK inhibitor group (the time was shown in Table 9), and then being injected/intragastrically administered with the same solvent as that used in the chemotherapeutic agent group (the administration mode was shown in Table 9): the chemotherapeutic agent group: being intragastrically administered with the same solvent as that used in the CDK inhibitor group (the time was shown in Table 9), and then being injected/intragastrically administered with the chemotherapeutic agent (the type, administration mode, dosage and duration time were shown in Table 9): the CDK inhibitor group: being intragastrically administered with the CDK inhibitor (the time was shown in Table 9), and then being administered with the chemotherapeutic agent (the type, administration mode, dosage and duration time were shown in Table 9).
The scoring of diarrhea can refer to the method of Akinobu Kurita (Cancer Chemother Pharmacol 2000: 46:211-20.), Grade 0: normal feces: Grade 1: mild diarrhea, the stools is slightly wet and soft: Grade 2: moderate diarrhea, loose stools and mild perianal contamination: Grade 3: severe diarrhea, watery stools and accompanied by severe perianal staining (see FIG. 1). It is regarded as effective remission when the diarrhea grading of mice in the CDK inhibitor group is reduced compared with the average diarrhea grading of mice in the chemotherapeutic agent group.
The diarrhea grading of mice was observed and recorded every day. At the end of the experiment, the number of mice in the CDK inhibitor group whose diarrhea grading was lower than that of mice in the chemotherapeutic agent group was recorded. Table 9 lists various animal experiment combinations of chemotherapeutic agents and CDK inhibitors, as well as the corresponding experimental results. (Relative remission rate %=the number of mice in the CDK inhibitor group whose diarrhea has been effectively relieved/the total number of mice in the CDK inhibitor group*100%. The establishment rate of diarrhea model in the chemotherapeutic agent group was 50%-80%, that is, about 5-8 of 10 mice developed diarrhea during the experiment, and there were cases of individual mice death or not developing diarrhea.)

SMILES: CCN1CCN(Cc2ccc(Nc3ncc(F)c(-c4cc(F)c5nc(C)n(C(C)C)c5c4)n3)nc2)CC1 [Abemaciclib]
- Relative remission rate (%) ([1]; Example 48, Fluorouracil (5-Fu) intramuscular injection 125 mg/kg single, CDK inhibitor oral 150 mg/kg single 8 h before, cycle 10 days): 40%
- Relative remission rate (%) ([1]; Example 89, Irinotecan (CPT-11) intraperitoneal injection 240 mg/kg single, CDK inhibitor oral 150 mg/kg single 0.5 h before, cycle 7 days): 30%
- Relative remission rate (%) ([1]; Example 90, Irinotecan (CPT-11) intraperitoneal injection 240 mg/kg single, CDK inhibitor oral 150 mg/kg single 1 h before, cycle 7 days): 30%
- Relative remission rate (%) ([1]; Example 91, Irinotecan (CPT-11) intraperitoneal injection 240 mg/kg single, CDK inhibitor oral 150 mg/kg single 2 h before, cycle 7 days): 40%
- Relative remission rate (%) ([1]; Example 92, Irinotecan (CPT-11) intraperitoneal injection 240 mg/kg single, CDK inhibitor oral 150 mg/kg single 3 h before, cycle 7 days): 30%
- Relative remission rate (%) ([1]; Example 93, Irinotecan (CPT-11) intraperitoneal injection 240 mg/kg single, CDK inhibitor oral 150 mg/kg single 4 h before, cycle 7 days): 50%
- Relative remission rate (%) ([1]; Example 94, Irinotecan (CPT-11) intraperitoneal injection 240 mg/kg single, CDK inhibitor oral 150 mg/kg single 5 h before, cycle 7 days): 60%
- Relative remission rate (%) ([1]; Example 95, Irinotecan (CPT-11) intraperitoneal injection 240 mg/kg single, CDK inhibitor oral 150 mg/kg single 6 h before, cycle 7 days): 60%
- Relative remission rate (%) ([1]; Example 96, Irinotecan (CPT-11) intraperitoneal injection 240 mg/kg single, CDK inhibitor oral 150 mg/kg single 7 h before, cycle 7 days): 60%
- Relative remission rate (%) ([1]; Example 97, Irinotecan (CPT-11) intraperitoneal injection 240 mg/kg single, CDK inhibitor oral 150 mg/kg single 8 h before, cycle 7 days): 70%
- Relative remission rate (%) ([1]; Example 98, Irinotecan (CPT-11) intraperitoneal injection 240 mg/kg single, CDK inhibitor oral 150 mg/kg single 9 h before, cycle 7 days): 50%
- Relative remission rate (%) ([1]; Example 99, Irinotecan (CPT-11) intraperitoneal injection 240 mg/kg single, CDK inhibitor oral 12.5 mg/kg single 10 h before, cycle 7 days): 20%
- Relative remission rate (%) ([1]; Example 100, Irinotecan (CPT-11) intraperitoneal injection 240 mg/kg single, CDK inhibitor oral 25 mg/kg single 10 h before, cycle 7 days): 40%
- Relative remission rate (%) ([1]; Example 101, Irinotecan (CPT-11) intraperitoneal injection 240 mg/kg single, CDK inhibitor oral 50 mg/kg single 10 h before, cycle 7 days): 80%
- Relative remission rate (%) ([1]; Example 102, Irinotecan (CPT-11) intraperitoneal injection 240 mg/kg single, CDK inhibitor oral 100 mg/kg single 10 h before, cycle 7 days): 50%
- Relative remission rate (%) ([1]; Example 103, Irinotecan (CPT-11) intraperitoneal injection 240 mg/kg single, CDK inhibitor oral 150 mg/kg single 10 h before, cycle 7 days): 70%
- Relative remission rate (%) ([1]; Example 104, Irinotecan (CPT-11) intraperitoneal injection 240 mg/kg single, CDK inhibitor oral 100 mg/kg single 11 h before, cycle 7 days): 80%
- Relative remission rate (%) ([1]; Example 105, Irinotecan (CPT-11) intraperitoneal injection 240 mg/kg single, CDK inhibitor oral 100 mg/kg single 12 h before, cycle 7 days): 80%
- Relative remission rate (%) ([1]; Example 106, Irinotecan (CPT-11) intraperitoneal injection 240 mg/kg single, CDK inhibitor oral 100 mg/kg single 14 h before, cycle 7 days): 90%
- Relative remission rate (%) ([1]; Example 107, Irinotecan (CPT-11) intraperitoneal injection 240 mg/kg single, CDK inhibitor oral 100 mg/kg single 16 h before, cycle 7 days): 70%
- Relative remission rate (%) ([1]; Example 108, Irinotecan (CPT-11) intraperitoneal injection 240 mg/kg single, CDK inhibitor oral 100 mg/kg single 18 h before, cycle 7 days): 70%
- Relative remission rate (%) ([1]; Example 109, Irinotecan (CPT-11) intraperitoneal injection 240 mg/kg single, CDK inhibitor oral 100 mg/kg single 20 h before, cycle 7 days): 40%
- Relative remission rate (%) ([1]; Example 110, Irinotecan (CPT-11) intraperitoneal injection 240 mg/kg single, CDK inhibitor oral 100 mg/kg single 22 h before, cycle 7 days): 40%
- Relative remission rate (%) ([1]; Example 111, Irinotecan (CPT-11) intraperitoneal injection 240 mg/kg single, CDK inhibitor oral 100 mg/kg single 24 h before, cycle 7 days): 40%
- Relative remission rate (%) ([1]; Example 112, Irinotecan (CPT-11) intraperitoneal injection 240 mg/kg single, CDK inhibitor oral 100 mg/kg single 48 h before, cycle 7 days): 0%
- Relative remission rate (%) ([1]; Example 226, Topotecan intraperitoneal injection 10 mg/kg single, CDK inhibitor oral 150 mg/kg single, 6 h before, 14 days): 40%
- Relative remission rate of other administration mode ([2]; Example 394, Carboplatin (CBP) intravenous injection 120 mg/kg single, CDK inhibitor intramuscular injection 150 mg/kg single, 8 h before, cycle 10 days): 20%
- Relative remission rate of oral administration ([2]; Example 394, Carboplatin (CBP) intravenous injection 120 mg/kg single, 8 h before, cycle 10 days): 60%
- Relative remission rate of other administration mode ([2]; Example 396, Gemcitabine (GEM) intraperitoneal injection 120 mg/kg single, CDK inhibitor intraperitoneal injection 150 mg/kg single, 0.5 h before, cycle 8 days): 10%
- Relative remission rate of oral administration ([2]; Example 396, Gemcitabine (GEM) intraperitoneal injection 120 mg/kg single, 0.5 h before, cycle 8 days): 40%
- Relative remission rate of other administration mode ([2]; Example 397, Gemcitabine (GEM) intraperitoneal injection 120 mg/kg single, CDK inhibitor intraperitoneal injection 150 mg/kg single, 4 h before, cycle 8 days): 20%
- Relative remission rate of oral administration ([2]; Example 397, Gemcitabine (GEM) intraperitoneal injection 120 mg/kg single, 4 h before, cycle 8 days): 50%
- Relative remission rate of other administration mode ([2]; Example 398, Gemcitabine (GEM) intraperitoneal injection 120 mg/kg single, CDK inhibitor intraperitoneal injection 150 mg/kg single, 8 h before, cycle 8 days): 30%
- Relative remission rate of oral administration ([2]; Example 398, Gemcitabine (GEM) intraperitoneal injection 120 mg/kg single, 8 h before, cycle 8 days): 60%
- Relative remission rate of other administration mode ([2]; Example 399, Gemcitabine (GEM) intraperitoneal injection 120 mg/kg single, CDK inhibitor intraperitoneal injection 150 mg/kg single, 12 h before, cycle 8 days): 30%
- Relative remission rate of oral administration ([2]; Example 399, Gemcitabine (GEM) intraperitoneal injection 120 mg/kg single, 12 h before, cycle 8 days): 60%
- Relative remission rate of other administration mode ([2]; Example 400, Gemcitabine (GEM) intraperitoneal injection 120 mg/kg single, CDK inhibitor intraperitoneal injection 150 mg/kg single, 24 h before, cycle 8 days): 10%
- Relative remission rate of oral administration ([2]; Example 400, Gemcitabine (GEM) intraperitoneal injection 120 mg/kg single, 24 h before, cycle 8 days): 40%
- Relative remission rate [3]: 0%
